Assay results from US11051515B2, “3-acyl-benzamides and their use as herbicides” (Bayer Aktiengesellschaft, priority 2017, dated 2021).

Experiments:
[1] = tested on: ALOMY; assay: Pre-emergence action against ALOMY; assay type: in vivo, Alopecurus myosuroides; conditions: Alopecurus myosuroides, 504 h; dosage 320 g/ha; pre-emergence; scored visually after 3 weeks vs untreated controls; 100% = plants have died, 0% = like control plants; read-out: Pre-emergence action against ALOMY (herbicidal activity in percent)
Method in brief: (§1)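 Seeds sown in sandy loam in wood-fiber pots and covered with soil. Greenhouse growth; visual damage scored after 3 weeks versus untreated controls (100% = dead, 0% = like control).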

[2] = tested on: DIGSA; assay: Pre-emergence action against DIGSA; assay type: in vivo, Digitaria sanguinalis; conditions: dosage 320 g/ha, scored visually after 3 weeks vs untreated controls
Method in brief: as §1

[3] = tested on: LOLRI; assay: Pre-emergence action against LOLRI; assay type: in vivo, Lolium rigidum; conditions: Lolium rigidum, 504 h, dosage 320 g/ha, scored visually after 3 weeks vs untreated controls, read-out: Pre-emergence action against LOLRI (herbicidal activity)
Method in brief: as §1

[4] = tested on: ABUTH; assay: Pre-emergence action against ABUTH; assay type: in vivo, Abutilon theophrasti; conditions: Abutilon theophrasti, 504 h; pre-emergence, dosage 320 g/ha, scored visually after 3 weeks vs untreated controls; read-out: Pre-emergence action against ABUTH (herbicidal activity)
Method in brief: as §1

[5] = tested on: AMARE; assay: Pre-emergence action against AMARE; assay type: in vivo, Amaranthus retroflexus; conditions: Amaranthus retroflexus, 504 h; pre-emergence, dosage 320 g/ha, scored visually after 3 weeks vs untreated controls; read-out: Pre-emergence action against AMARE (herbicidal activity)
Method in brief: as §1

[6] = tested on: MATIN; assay: Pre-emergence action against MATIN; assay type: in vivo, Matricaria inodora; conditions: Tripleurospermum inodorum, 504 h; Dosage 320 g/ha, pre-emergence
Method in brief: as §1

[7] = tested on: PHBPU; assay: Pre-emergence action against PHBPU; assay type: in vivo, Pharbitis purpurea; conditions: Ipomoea purpurea, 504 h; Dosage 320 g/ha, pre-emergence
Method in brief: as §1

[8] = tested on: STEME; assay: Pre-emergence action against STEME; assay type: in vivo, Stellaria media; conditions: Stellaria media, 504 h; Dosage 320 g/ha, pre-emergence
Method in brief: as §1

[9] = tested on: HORMU; assay: Pre-emergence action against HORMU; assay type: in vivo, Hordeum murinum; conditions: Hordeum murinum, 504 h, Dosage 320 g/ha
Method in brief: as §1

[10] = tested on: DIGSA; assay: Post-emergence action against DIGSA; assay type: in vivo, Digitaria sanguinalis; conditions: dosage 80 g/ha, visual assessment about 3 weeks after treatment vs untreated controls
Method in brief: (§2)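 Post-emergence foliar spray on greenhouse plants at the one-leaf stage, using wettable-powder or emulsion-concentrate formulations in water (600 to […], plus 0.2% wetting agent). Damage scored by eye roughly 3 weeks later against untreated plants: 0% = like control, 100% = dead.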

[11] = tested on: LOLRI; assay: Post-emergence action against LOLRI; assay type: in vivo, Lolium rigidum; conditions: Lolium rigidum, 504 h, dosage 80 g/ha, visual assessment about 3 weeks after treatment vs untreated controls, read-out: Post-emergence action against LOLRI (herbicidal action in percent)
Method in brief: as §2

[12] = tested on: VIOTR; assay: Post-emergence action against VIOTR; assay type: in vivo, Viola tricolor; conditions: Viola tricolor, 504 h; post-emergence, dosage 80 g/ha
Method in brief: as §2

[13] = tested on: HORMU; assay: Post-emergence action against HORMU; assay type: in vivo, Hordeum murinum; conditions: dosage 80 g/ha
Method in brief: as §2

Row | Structure (SMILES) | pest or weed control at 320 g/ha [1] [%] | Pre-emergence action against DIGSA (herbicidal activity) [2] [%] | pest or weed control at 320 g/ha [3] [%] | pest or weed control at 320 g/ha [4] [%] | pest or weed control at 320 g/ha [5] [%] | pest or weed control at 320 g/ha [6] [%] | pest or weed control at 320 g/ha [7] [%] | pest or weed control at 320 g/ha [8] [%] | pest or weed control at 320 g/ha [9] [%] | Post-emergence action against DIGSA (herbicidal action in percent) [10] [%] | pest or weed control at 80 g/ha [11] [%] | pest or weed control at 80 g/ha [12] [%] | Post-emergence action against HORMU [13]
1 | Cn1nnnc1NC(=O)c1ccc(C(F)(F)F)c(C(=O)C2CC2)c1C1CC1 [1-233] | 100 | 100 | 100 | 100 | 100 | 100 | 100 | 100 | 100 | 100 | 90 | 90 | 80
2 | CC(=O)c1c(I)ccc(C(=O)Nc2nnnn2C)c1Cl [1-192] | 100 | – | 100 | 100 | 100 | 100 | 100 | 100 | 100 | – | 100 | 100 | 100
3 | CSc1c(C(=O)Nc2nnnn2C)ccc(C(F)(F)F)c1C(=O)C1CC1 [1-60] | 100 | – | 100 | 100 | 100 | 100 | 100 | 100 | 100 | – | 100 | 90 | 100
4 | Cn1nnnc1NC(=O)c1ccc(C(F)F)c(C(=O)C2CC2)c1Cl [1-168] | 100 | – | 100 | 100 | 100 | 100 | 100 | 100 | 100 | – | 100 | 100 | 100
